Literature values as cited in US20030113362A1, “Unique ascorbic acid derivatives with essential amino acids, nonessential amino acid and amino acids that do not occur in protein: the process for their preparation and use in research, medicine, physiology, pharmacology, nutrition, pharmaceuticals, and for cosmetic, commercial and industrial …” (priority 2001, published 2003).

Conditions: compared with ascorbic acid; test conditions not given

In the case of `O=C1O[C@H]([C@@H](O)CO)C(O)=C1OS(=O)(=O)O` [L-ascorbate 2-sulphate], the “stability, times more stable than ascorbic acid” value is given as 20 times.
